Data as given in patent publication US9801373B2, “Compounds for alleviating phosphate starvation symptoms in plants” (Commissariat a l'Energie Atomique et aux Energies …, priority 2012, dated 2017).

What was measured:
Assay type in all cases: in vivo, Arabidopsis thaliana
anthocyanin accumulation = experiment: Anthocyanins content; conditions: FIG. 10 (C)
Protocol: Lipids and anthocyanins were analyzed as previously described by Jouhet (2003) and Ticconi (2001).

Pi uptake capacity = experiment: Phosphate uptake experiments (33PO4); conditions: −Pi+PTN1 vs −Pi, 7-day-old plantlets, FIG. 3 (B)
Protocol: Phosphate uptake experiments were performed as previously described by Narang et al. (2000). 24 seedlings per conditions were incubated separately in a phosphate incubation solution containing ^33PO4 (5 mM MES, 0.1 mM CaCl2, 20 μM KH2PO4, 0.15 μCi/ml ^33PO4) for 2 h. After incubation in the uptake solution, plantlets were transferred to a chilled desorption medium (5 mM MES, 0.1 mM CaCl2, 1 mM KH2PO4) for 2 h at 4° C. Then, the seedlings were dried in scintillation vials at 60° C. overnight. An amount of 2 ml of scintillation cocktail (InstaGel, PerkinElmer, Wellesley, Mass., USA) was added and the radioactivity was measured with a scintillation analyzer (TRICARB, Packard instrument company). The amount of phosphate absorbed during the experiment was calculated and normalized per cm of root.

Col-0 plants = experiment: Shoot (rosette) area after 28 days; conditions: four weeks on −Pi medium, FIG. 10 (A), (B)
Protocol: (§1) In the Pi deficient medium, NaCl (0.5 mM) was used to replace the equivalent amount of sodium provided by NaH2PO4. For controls of the effects of the compounds, 1% of DMSO (Dimethyl sulfoxid, SIGMA, 472301), solvent for the tested compounds, was added. After 2 days at 4° C., the plates were placed in a vertical position and plants were grown in a culture chamber under a 16 h light/8 h dark regime (24/21° C., 150 μE m^−2s^−1). For 4 weeks culture, large plates (24×24 cm) were placed in a horizontal position. Root architecture and aerial part area were quantified using program ImageJ.

[1] = system: SQD2, MGD3, PLDz2, SQD1 and MGD2; experiment: qPCR of genes involved in lipid synthesis; conditions: 40 μM, 14 days, FIG. 5 (A)
Protocol: Plant RNA was extracted with the RNeasy kit (QIAGEN, France). For transcriptome data, RNA were analysed by the CATMA technology (Complete Arabidopsis Transcriptome Microarray). For qPCR, poly(dT) cDNA were prepared from 500 ng total RNA with Superscript III reverse transcriptase (Invitrogen, France) and analysed on a LightCycler 480 apparatus (Roche Diagnostics, France) with the SYBR Green I Master kit (Roche Diagnostics, France) according to the manufacturer's instructions. Targets were quantified with specific primer pairs designed with Primer3 website (http://frodo.wi.mit.edu/primer3/) (see Table II below). Biological triplicates were performed for all experiments. Expression levels were normalized using At2g16600, At3g04120, At1g35160 and At1g32050 genes.

lpr1 mutant = experiment: Shoot growth of lpr1 mutant; conditions: −Pi, FIG. 11
Protocol: as §1

PHT1;4 expression = experiment: Chemical genetics screen, GUS staining of pht1;4-1 reporter line; conditions: 25 μM, 5 days on −Pi
Text: A “chemical genetics” approach has been carried out to isolate compounds that inhibit the phosphate (Pi) response in Arabidopsis thaliana. Compounds were screened for their ability to inhibit the expression of a phosphate starvation marker, namely the high affinity Pi transporter PHT1,4 gene. For the screening, the A. thaliana pht1;4-1 line (ecotype Wassilewskija) was chosen (Misson et al., 2004). It contains a T-DNA construct inserted into Pht1;4 gene creating a transcriptional fusion with a GUS reporter gene. For phenotypic analyses, A. thaliana Columbia and various lines derived from this ecotype were used. They are either transgenic lines expressing reporter gene as cycB1::GUS (Colón Carmona et al., 1999), MGD3::LUC, PHT1;4::LUC, At1g73010::LUC or various mutants affecting root response to low Pi such as: pdr2 (Ticconi et al., 2004), lpr1, lpr2 (Svistoonoff et al., 2007), lpi1, lpi2 and lpi3 (Sanchez-Calderon et al., 2006).
For the screening, the LATCA collection of 3600 biologically active compounds (Zhao et al., 2007) was used at a final concentration of 25 μM in 1% DMSO. Four to five Arabidopsis seeds of pht1;4-1 (Misson et al., 2004) reporter line were sown in 96-well plates containing 100 μL liquid MS/10 medium with 500 μM of Pi at pH 5.7. After 2 days at 4° C., plants were grown for five days in a culture chamber under a 16 h light/8 h dark regime (24/21° C., 150 μE m^−2s^−1). Medium was then replaced by MS/10 with only 5 μM Pi and the tested compounds were added to the 96-well plates. […] Five days later, plantlets were analysed by GUS staining to assay the activity of the reporter gene inserted in pht1;4 gene. […] Then, plates were analysed using a MZ16 stereomicroscope (Leica microsystems, Germany).
The GUS activity was detected as previously described by Jefferson et al. (1987), using a GUS staining solution containing 50 mM sodium phosphate buffer pH 7.0; 0.01% Triton X-100, 1 mM K3Fe(CN)6, 1 mM K4Fe(CN)6, 1 mg/ml 5-bromo-4-chloro-3-indolyl B-D-glucuronide (X-Gluc). […]

O=c1c(Sc2ccc(Cl)cc2)c(Sc2ccc(Cl)cc2)c1=O [PTN1]
anthocyanin accumulated, less than control grown on −Pi (anthocyanin accumulation): around 60% | reduction of Pi uptake capacity (Pi uptake capacity): 25% | rosette area (leaf growth) vs −Pi (Col-0 plants): +50% | expression of SQD2, MGD3, PLDz2, SQD1 and MGD2 [1]: repressed the expression | anthocyanins accumulation in leaves of lpr1 (lpr1 mutant): substantially suppressed this accumulation | toxicity as cause of reduced reporter gene expression (PHT1;4 expression): not explained by toxicity
